From patent publication US20080207650A1, “Chemical Compounds 636” (priority 2007, published 2008) come the findings set out here.

recombinant Human Phosphodiesterase B2 (PDE4B2), sequence (Q07343 1-564 isoform Q07343-2): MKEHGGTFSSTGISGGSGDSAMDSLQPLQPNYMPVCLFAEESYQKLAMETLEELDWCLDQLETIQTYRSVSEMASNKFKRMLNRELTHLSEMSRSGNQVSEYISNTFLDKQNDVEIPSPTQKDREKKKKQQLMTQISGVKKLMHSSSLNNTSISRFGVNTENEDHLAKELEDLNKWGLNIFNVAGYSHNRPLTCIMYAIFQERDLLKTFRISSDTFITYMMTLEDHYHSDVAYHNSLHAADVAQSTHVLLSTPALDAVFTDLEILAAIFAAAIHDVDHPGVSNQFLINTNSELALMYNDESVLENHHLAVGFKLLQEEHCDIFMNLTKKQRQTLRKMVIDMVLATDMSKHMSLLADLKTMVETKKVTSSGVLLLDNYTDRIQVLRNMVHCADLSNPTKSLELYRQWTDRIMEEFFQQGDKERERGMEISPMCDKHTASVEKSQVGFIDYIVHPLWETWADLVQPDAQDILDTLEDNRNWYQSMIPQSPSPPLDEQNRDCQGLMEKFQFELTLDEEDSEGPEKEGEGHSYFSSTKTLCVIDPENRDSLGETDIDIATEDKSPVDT

This assay addresses recombinant Human Phosphodiesterase B2 (PDE4B2) (Homo sapiens, UniProt Q07343). The experiment in a line: Human Phosphodiesterase B2 Radiometric Assay. The class given is biochemical. The settings on record: SPA assay, 0.1 μg/mL recombinant PDE4B2, 8 nM [3H]cyclic AMP, preincubated 30 min at 30 C, reaction 20 minutes; read-out: PDE4B2 pIC50 (converted). The procedure:
Human Phosphodiesterase B2 Radiometric Assay
The assay uses recombinant Human Phosphodiesterase B2 (PDE4B2) produced in house (PrAZL0163), stored at −20° C. This assay is based on the observation that 5′AMP, the product of the reaction catalysed by PDE4, binds preferentially to yttrium silicate SPA beads (Amersham Biosciences, UK) compared to the substrate, cAMP. Compounds at the appropriate concentration were preincubated at 30 C for 30 min with an assay buffer containing 50 mM HEPES (pH 7.5), 8.3 mM MgCl2, 1.7 mM EGTA, 0.01% (w/v) Brij® 35 and 0.1 μg/mL recombinant PDE4B2. The reaction was started by the addition of [3H]cyclic AMP to give a final concentration of 8 nM, and was stopped 20 minutes after the addition of the substrate by the addition of yttrium silicate SPA beads containing 18 mM Zn SO4. Bound [3H]cyclic AMP was measured using a Topcount NXT (Packard Bioscience, UK). IC50 values (presented in Table I) were determined using Xlfit3 curve fitting, using model 205.
On to `NCC1CCc2nc(C(=O)N[C@H]3CC[C@@H](n4c(=O)c5cc(F)cnc5n(C5CCSCC5)c4=O)CC3)cn2C1` (stereo partly drawn) [Example 3, 6-(aminomethyl)-N-{cis-4-[6-fluoro-2,4-dioxo-1-(tetrahydro-2H-thiopyran-4-yl)-1,4-dihydropyrido[2,3-d]pyrimidin-3(2H)-yl]cyclohexyl}-5,6,7,8-tetrahydroimidazo[1,2-a]pyridine-2-carboxamide], for which the IC50 is 6.31 nM.

In the case of `CN1CCN(Cc2ccc(C(=O)NC3CCC(n4c(=O)c5cc(F)cnc5n(C5CCSCC5)c4=O)CC3)cc2)CC1` (stereo not shown) [Example 6, N-[4-(9-fluoro-2,4-dioxo-5-tetrahydrothiopyran-4-yl-3,5,7-triazabicyclo[4.4.0]deca-6,8,10-trien-3-yl)cyclohexyl]-4-[(4-methylpiperazin-1-yl)methyl]benzamide], the IC50 was 3.16 nM.

In the case of `O=C(CN1CCN(Cc2ccccc2)CC1)NC1CCC(n2c(=O)c3cc(F)cnc3n(C3CCSCC3)c2=O)CC1` (stereo not shown) [Example 10, 2-(4-benzylpiperazin-1-yl)-N-[4-(9-fluoro-2,4-dioxo-5-tetrahydrothiopyran-4-yl-3,5,7-triazabicyclo[4.4.0]deca-6,8,10-trien-3-yl)cyclohexyl]acetamide], the IC50 was 0.0794 nM.

With `O=C(CN1CCN(C(=O)Cc2ccccc2)CC1)NC1CCC(n2c(=O)c3cc(F)cnc3n(C3CCSCC3)c2=O)CC1` (stereo not shown) [Example 24, N-[4-(9-fluoro-2,4-dioxo-5-tetrahydrothiopyran-4-yl-3,5,7-triazabicyclo[4.4.0]deca-6,8,10-trien-3-yl)cyclohexyl]-2-[4-(2-phenylacetyl)piperazin-1-yl]acetamide], the IC50 is 2 nM.
